Molecular target: MBL (Homo sapiens, UniProt P11226)
Test: Affinity of monomeric saccharides for MBL
Format: binding

Sequence of MBL (P11226 21-248): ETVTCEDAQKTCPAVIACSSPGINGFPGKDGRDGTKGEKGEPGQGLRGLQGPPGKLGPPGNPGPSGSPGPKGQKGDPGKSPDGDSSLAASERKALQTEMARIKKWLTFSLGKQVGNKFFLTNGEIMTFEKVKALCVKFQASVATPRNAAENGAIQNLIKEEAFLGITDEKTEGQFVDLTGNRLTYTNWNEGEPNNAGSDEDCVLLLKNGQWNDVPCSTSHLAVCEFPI

CC(=O)N[C@H]1C(O)O[C@H](CO)[C@@H](O)[C@@H]1O (some centres unmarked) [N-acetyl-glucosamine]
affinity for MBL: high affinity

O=C[C@H](O)[C@@H](O)[C@@H](O)[C@H](O)CO [galactose]
affinity for MBL: very low affinity

From patent publication US8478375B2, “Sensor for detection of carbohydrate” (Medtronic Minimed, Inc., priority 2004, dated 2013)
